Results from patent US20240325358A1, “PHARMACEUTICAL COMPOSITION FOR PREVENTION OR TREATMENT OF ALLERGIC SKIN DISEASE OR SKIN PRURITUS” (CUePEAK BIO. Co., Ltd., priority 2023, published 2024).

Legend:
filaggrin [1] = test: Expression amount of filaggrin in NHEK by RNA extraction and RT-qPCR; assay type: cell-based, human; settings: NHEK, 0, 0.5, 1.0 and 2.5 μM, after 24 hours of treatment; FIGS. 1A and 1B
Description: (§1) • A human epidermal cell line (normal human epidermal keratinocyte; NHEK) is a human fetal transdermal cell line and was used after being distributed from ATCC.
(§2) It was a cell obtained from primary culture and was used for confirming biochemical changes within the cell by ABT-751 or TN-16 under normal conditions, not disease conditions. • Experimental animal: Since a hos:HR-1(hairless) mouse has no hair in skin disease research, it allows skin-related research to be performed by directly applying a drug on skin or inducing skin diseases by chemical or biological allergen.
A normal human epidermal keratinocyte (NHEK) on which ABT-751, TN-16, or a control sample was applied, or a mouse skin tissue was dissolved using a TRI reagent (MRC), and then RNA in cells was extracted using Rneasy Mini Kit (Qiagen).
The extracted RNA was reverse-transcribed with ImProm-II TM Reverse Transcription Kit (Promega) to synthesize cDNA, and then an amount of filaggrin was measured by a quantitative PCR (qPCR) through Real-Time PCR Detection System (Bio-Rad, CFX96).
The normal human epidermal keratinocytes (NHEK) in culture was treated with ABT-751 and TN-16, respectively to measure the expression amount of filaggrin and confirm a change in cell differentiation degree. […]

[2] = tested on: normal human epidermal keratinocytes (NHEK); test: Cell differentiation degree in normal human epidermal keratinocytes; assay type: cell-based; settings: 24 hours of treatment, compared with untreated control group, FIG. 2
Description: as §1, §2
The normal human epidermal keratinocytes (NHEK) in culture was treated with ABT-751 and TN-16, respectively to measure the expression amount of filaggrin and confirm a change in cell differentiation degree.
NHEK was treated with ABT-751 and TN-16 by concentrations of 0, 0.5, 1.0, and 2.5 μM, respectively, and after 24 hours of treatment, the expression amount of filaggrin and the cell differentiation degree were observed.

filaggrin [3] = test: Expression amount of filaggrin in HR-1 mouse back skin tissue (RT-qPCR and Western blot); assay type: in vivo, hos:HR-1 mouse; settings: HR-1 mouse back skin, 1, 2 and 4% formulations applied once a day, vs 0% formulation control; RNA and protein; FIGS. 3A to 3C
Description: as §2
In addition, it has a skin thickness of about 0.4 mm at 8 to 10 weeks of age, which is similar to the skin of a human, and is useful for research on pathogenesis mechanism of skin diseases and confirmation of biochemical changes in skin tissue. […]
The extracted RNA was reverse-transcribed with ImProm-II TM Reverse Transcription Kit (Promega) to synthesize cDNA, and then an amount of filaggrin was measured by a quantitative PCR (qPCR) through Real-Time PCR Detection System (Bio-Rad, CFX96). […]
The thin film was reacted with an ECL solution (Thermo Fisher), and the protein after the reaction was detected using a luminescence reaction measuring instrument (Fusion Solo, Vilber). […]
Each of RNA and protein was extracted from the back skin tissue on which ABT-751 or TN-16 was applied, respectively, by the method of the text example and the expression amount of filaggrin was measured, and the results are shown in FIG. 3.

HR-1 mouse skin = test: Skin barrier function test (skin moisture loss, skin barrier index) in HR-1 mouse; assay type: in vivo, hos:HR-1 mouse; settings: 4% formulation applied on back skin once a day, vs 0% formulation, effect grew with days of application, FIG. 4
Description: as §2
In addition, it has a skin thickness of about 0.4 mm at 8 to 10 weeks of age, which is similar to the skin of a human, and is useful for research on pathogenesis mechanism of skin diseases and confirmation of biochemical changes in skin tissue.
2 hours after applying ABT-751 or TN-16, skin moisture loss, a skin barrier index, and a comprehensive index on the application area were measured for 3 weeks with a precision measuring instrument (Courage-khazaka electronic GmbH, MPA10), and recorded.
ABT-751 and TN-16 of 0, 1, 2, and 4% formulations were applied on the back skin of a hairless hos:HR-1 mouse (hereinafter, referred to as HR-1 mouse) in the same amount once a day for 3 weeks, respectively.
After each application, skin moisture loss and a skin barrier index were measured by the method of the test example.
After applying the control group (0% formulation ABT-751 or 0% formulation TN-16) and ABT-751 or TN-16 of a 4% formulation, respectively, skin moisture loss and a skin barrier index were measured, and the results are shown in FIG. 4.

In the case of `COc1ccc(S(=O)(=O)Nc2cccnc2Nc2ccc(O)cc2)cc1` [ABT-751, N-[2-[(4-Hydroxyphenyl)amino]pyridin-3-yl]-4-methoxybenzenesulfonamide], the “expression amount of filaggrin” value (filaggrin [1]) is reported as “increased depending on the ABT-751 and TN-16 treatment concentrations”, the cell differentiation degree [2] is reported as “significantly increased” and the “expression amount of filaggrin in the skin tissue” value (filaggrin [3]) is reported as “increased in a concentration-dependent manner”. For the same molecule, the skin barrier index (HR-1 mouse skin) was “increased” and the skin moisture loss (HR-1 mouse skin) was “decreased”.

In the case of `C/C(Nc1ccccc1)=C1/C(=O)NC(Cc2ccccc2)C1=O` (stereo not drawn) [TN-16, 3-[1-(phenylamino)ethylidene]-5-(phenylmethyl)-2,4-pyrrolidinedione], the “expression amount of filaggrin” value (filaggrin [1]) is reported as “increased depending on the ABT-751 and TN-16 treatment concentrations”, the “expression amount of filaggrin in the skin tissue” value (filaggrin [3]) is reported as “increased in a concentration-dependent manner” and the skin barrier index (HR-1 mouse skin) is reported as “increased”. For the same molecule, the skin moisture loss (HR-1 mouse skin) was “decreased”.
